Measurements as given in patent US20250313575A1, “MACROCYCLES AS LRRK2 INHIBITORS, PHARMACEUTICAL COMPOSITIONS, AND USES THEREOF” (Merck Sharp & Dohme LLC, priority 2022, published 2025).

molecular target: GST-tagged truncated human mutant G2019S LRRK2 (Homo sapiens (Human), UniProt Q5S007, G2019S); test: LRRK2 G2019S Km ATP LanthaScreen assay; format: biochemical; conditions: G2019S LRRK2, 134 μM ATP (Km ATP), LRRKtide substrate
Experimental: Unless otherwise noted, all reactions are magnetically allowed to stir, diethyl ether used in the experiments described below is Fisher ACS certified material stabilized with BHT, and “concentrated” and/or “solvent removed under reduced pressure” means evaporating the solvent from a solution or mixture using a rotary evaporator or vacuum pump. Unless otherwise noted, flash chromatography is carried out on a Teledyne Isco (Lincoln, NE), Analogix (Burlington, WI), or Biotage (Stockholm, SWE) automated chromatography system using a commercially available cartridge as the column. Columns may be purchased from Teledyne Isco, Analogix, Biotage, Varian (Palo Alto, CA), or Supelco (Bellefonte, PA) and are usually filled with silica gel as the stationary phase. Reverse phase prep-HPLC conditions, where used, can be found at the end of each experimental section. Aqueous solutions were concentrated on a Genevac (Ipswich, ENG) or by freeze-drying/lyophilization. Unless otherwise noted, all LRRK2 pIC50 data presented in tables refers to the LRRK2 G2019S Km ATP LanthaScreen™ assay (Life Technologies Corp., Carlsbad, CA) that is described in the Biological Assay section.
The LRRK2 kinase activity reported herein as IC50 values was determined with LanthaScreen™ technology from Life Technologies Corporation (Carlsbad, CA) using GST-tagged truncated human mutant G2019S LRRK2 in the presence of the fluorescein-labeled peptide substrate LRRKtide, also from Life Technologies. The data presented for the […] depending on the specific conditions and reagents used. Assays were performed in the presence of 134 μM ATP (Km ATP). Upon completion, the assay was stopped and phosphorylated substrate detected with a terbium (Tb)-labeled anti-pERM antibody (cat. no. PV4898). The compound dose response was prepared by diluting a 10 mM stock of compound to a maximum concentration of 9.99 μM in 100% dimethylsulfoxide followed by custom fold serial dilution in dimethylsulfoxide nine times. Twenty nanoliters of each dilution was spotted via a Labcyte Echo onto a 384-well black-sided plate (Corning 3575) followed by 15 μl of a 1.25 nM enzyme solution in 1× assay buffer (50 mM Tris pH 8.5, 10 mM MgCl2, 0.01% Brij-35, 1 mM EGTA, 2 mM dithiothreitol, 0.05 mM sodium orthovanadate). Following a 15-minute incubation at room temperature, the kinase reaction was started with the addition of 5 μl of 400 nM fluorescein-labeled LRRKtide peptide substrate and 134 μM ATP solution in 1× assay buffer. The reaction was allowed to progress at ambient temperature for 90 minutes. The reaction was then stopped by the addition of 20 μl of TR-FRET Dilution Buffer (Life Technologies, Carlsbad, CA) containing 2 nM Tb-labeled anti-phospho LRRKtide antibody and 10 mM EDTA (Life Technologies, Carlsbad, CA). After an incubation of 1 h at room temperature, the plate was read on an EnVision multimode plate reader (Perkin Elmer, Waltham, MA) with an excitation wavelength of 337 nm (Laser) and a reading emission at both 520 and 495 nm. Compound IC50s were interpolated from nonlinear regression best fits of the log of the final compound concentration, plotted as a function of the 520/495-nm emission ratio using Activity base. Abase uses a 4 parameter (4P) logistic fit based on the Levenberg-Marquardt algorithm.

Sequence of GST-tagged truncated human mutant G2019S LRRK2 (Q5S007 970-2527 G2019S): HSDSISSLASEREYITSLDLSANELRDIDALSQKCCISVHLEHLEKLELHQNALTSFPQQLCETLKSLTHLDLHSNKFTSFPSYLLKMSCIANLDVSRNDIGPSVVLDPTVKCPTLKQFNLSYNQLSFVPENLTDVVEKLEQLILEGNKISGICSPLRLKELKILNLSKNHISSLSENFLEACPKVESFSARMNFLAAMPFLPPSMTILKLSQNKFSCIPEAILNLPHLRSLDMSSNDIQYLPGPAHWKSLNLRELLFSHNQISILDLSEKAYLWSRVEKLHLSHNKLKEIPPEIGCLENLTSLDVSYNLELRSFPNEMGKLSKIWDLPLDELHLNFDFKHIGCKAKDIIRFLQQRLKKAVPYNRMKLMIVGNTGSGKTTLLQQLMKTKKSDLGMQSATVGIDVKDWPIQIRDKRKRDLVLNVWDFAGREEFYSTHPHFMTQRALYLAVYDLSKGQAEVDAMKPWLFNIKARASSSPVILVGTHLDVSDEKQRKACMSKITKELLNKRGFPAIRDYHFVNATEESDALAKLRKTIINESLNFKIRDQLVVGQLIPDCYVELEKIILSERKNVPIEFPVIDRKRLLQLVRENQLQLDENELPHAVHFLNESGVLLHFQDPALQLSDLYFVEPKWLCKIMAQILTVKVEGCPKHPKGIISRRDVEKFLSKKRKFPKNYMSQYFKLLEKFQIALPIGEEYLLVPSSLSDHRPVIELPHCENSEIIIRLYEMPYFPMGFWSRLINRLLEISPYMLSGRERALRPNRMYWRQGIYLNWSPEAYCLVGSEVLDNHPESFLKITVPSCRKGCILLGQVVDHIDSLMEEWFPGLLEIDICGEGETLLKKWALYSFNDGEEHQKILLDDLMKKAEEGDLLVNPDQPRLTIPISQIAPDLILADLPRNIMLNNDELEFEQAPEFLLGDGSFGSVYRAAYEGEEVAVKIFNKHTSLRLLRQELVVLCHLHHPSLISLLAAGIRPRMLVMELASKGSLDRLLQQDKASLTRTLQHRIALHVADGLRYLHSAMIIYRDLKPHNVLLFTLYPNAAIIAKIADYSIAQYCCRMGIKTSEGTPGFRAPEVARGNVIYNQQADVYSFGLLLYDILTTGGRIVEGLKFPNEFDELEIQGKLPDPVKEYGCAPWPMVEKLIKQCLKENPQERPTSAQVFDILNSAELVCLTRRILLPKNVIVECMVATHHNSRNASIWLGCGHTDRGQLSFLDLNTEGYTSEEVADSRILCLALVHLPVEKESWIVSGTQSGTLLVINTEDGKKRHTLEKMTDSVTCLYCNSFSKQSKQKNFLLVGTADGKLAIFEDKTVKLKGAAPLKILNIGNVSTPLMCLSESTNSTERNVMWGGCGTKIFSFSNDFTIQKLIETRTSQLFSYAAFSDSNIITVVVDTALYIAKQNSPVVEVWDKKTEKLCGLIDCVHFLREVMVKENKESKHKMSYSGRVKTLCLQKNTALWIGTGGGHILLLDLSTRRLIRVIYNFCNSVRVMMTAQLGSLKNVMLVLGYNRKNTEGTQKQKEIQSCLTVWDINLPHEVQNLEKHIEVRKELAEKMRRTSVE

Structure (SMILES)	LRRK2 pIC50
Cc1nn(C)c2c1OCC1(CNc3nc(ncc3C(F)(F)F)N2)CC12CCOCC2 (single isomer, unassigned) [Ex-2.17, (R)- or (S)-1″,3″-dimethyl-10″- (trifluoromethyl)-1″,2,3,5,6,7″,8″,14″- octahydro-5″H-dispiro[pyran-4,1′-cyclopropane-2′,6″- [9,13](azeno)pyrazolo[4,3-b][1]oxa[4,6,10]triazacyclotridecine]]	8.42
CC(C)(C#N)c1nn(C2CCC2)c2c1OC[C@H]1CC[C@@H]1Nc1nc(ncc1C(F)(F)F)N2 [Ex-2.53, 2-((10aS,12aS)- or 2-((10aR,12aR)-3-cyclobutyl-8-(trifluoromethyl)-3,4,10,10a,11,12,12a,13-octahydro-5,9-(azeno)cyclobuta[k]pyrazolo[4,3-b][1]oxa[4,6,10]triazacyclotridecin-1-yl)-2-methylpropanenitrile]	9.64
Cc1nn(C2CCC2)c2c1OC[C@@H]1CN(C[C@H]1C)c1nc(ncc1C(F)(F)F)N2 (single isomer, unassigned) [Ex-20.2, (6S,7S)- or (6R,7R)-1-Cyclobutyl-3,7-dimethyl-11-(trifluoromethyl)-1,5,6,7,8,15-hexahydro-10,14-(azeno)-6,9-methanopyrazolo[4,3-b][1]oxa[4,6,10]triazacyclotetradecine]	9.39
FC(F)(F)c1cnc2nc1NC1CCC1COc1c(C3COC3)nn(C3CCC3)c1N2 [Ex-2.71, (10aR,12aR)- or (10aS,12aS)-3-cyclobutyl-1-(oxetan-3-yl)-8-(trifluoromethyl)-3,4,10,10a,11,12,12a,13-octahydro-5,9-(azeno)cyclobuta[k]pyrazolo[4,3-b][1]oxa[4,6,10]triazacyclotridecine]	8.24
Cc1nn(C)c2c1OCC1(CC1)C(C)Nc1nc(ncc1C(F)(F)F)N2 (single isomer, unassigned) [Ex-2.15, (R)- or (S)-1′,3′,7′-trimethyl-10′-(trifluoromethyl)-1′,7′,8′,14′-tetrahydro-5′H-spiro[cyclopropane-1,6′-[9,13](azeno)pyrazolo[4,3-b][1]oxa[4,6,10]triazacyclotridecine]]	7.44
CC(C)c1nn(C(C)(C)C#N)c2c1Nc1ncc(C(F)(F)F)c(n1)N[C@@H]1COC[C@H]1CO2 [Ex-1.14, 2-((10aS,13aS)-3-isopropyl-8-(trifluoromethyl)-10a,11,13a,14-tetrahydro-10H,13H-5,9-(azeno)furo[3,4-k]pyrazolo[3,4-b][1]oxa[4,6,10]triazacyclotridecin-1(4H)-yl)-2-methylpropanenitrile]	8.66
Cc1nn(C(C)C)c2c1OC[C@@H]1COC[C@H]1Nc1cc(ncc1C(F)(F)F)N2 [Ex-13.5, (10aS,13aS)-3-isopropyl-1-methyl-8-(trifluoromethyl)-3,4,10a,11,13a,14-hexahydro-10H,13H-5,9-(metheno)furo[3,4-k]pyrazolo[4,3-b][1]oxa[4,6,10]triazacyclotridecine]	>10.09
CC(C)n1nc(CO)c2c1Nc1ncc(C(F)(F)F)c(n1)N[C@@H]1COC[C@H]1CO2 [Ex-6.7, ((10aS,13aS)-3-isopropyl-8-(trifluoromethyl)-3,4,10a,11,13a,14-hexahydro-10H,13H-5,9-(azeno)furo[3,4-k]pyrazolo[4,3-b][1]oxa[4,6,10]triazacyclotridecin-1-yl)methanol]	>10.09
FC(F)(F)c1cnc2nc1NC1CCC1COc1c(C3CCOC3)nn(C3CCC3)c1N2 [Ex-2.64, (10aR,12aR)-3-cyclobutyl-1-((R)-(10aR,12aR)-3-cyclobutyl-1-((S)-(10aS,12aS)-3-cyclobutyl-1-((R)-(10aS,12aS)-3-cyclobutyl-1-((S)-tetrahydrofuran-3-yl)-8-(trifluoromethyl)-3,4,10,10a,11,12,12a,13-octahydro-5,9-(azeno)cyclobuta[k]pyrazolo[4,3-b][1]oxa|4,6,10]triazacyclotridecine]	>10.09
COC1CCC1n1nc(C)c2c1Nc1ncc(C(F)(F)F)c(n1)NC1COCC1CO2 [Ex-2.37, (10aS,13aS)-3-((1R,2R)-(10aS,13aS)-3-((1S,2R)-(10aS,13aS)-3-((1R,2S)-(10aS,13aS)-3-((1R,2R)-(10aR,13aR)-3-((1S,2R)-(10aR,13aR)-3-((1R,2S)-2-methoxycyclobutyl)-1-methyl-8-(trifluoromethyl)-3,4,10a,11,13a,14-hexahydro-10H,13H-5,9-(azeno)furo[3,4-k]pyrazolo[4,3-b][1]oxa[4,6,10]triazacyclotridecine]	6.00
Cc1c2c(nn1C1CC1)Nc1ncc(C(F)(F)F)c(n1)N[C@@H](C)CCO2 (single isomer, unassigned) [Ex-17.1, (R)- or (S)-2-cyclopropyl-3,7-dimethyl-10-(trifluoromethyl)-2,5,6,7,8,14-hexahydro-9,13-(azeno)pyrazolo[4,3-b][1]oxa[4,6,10]triazacyclotridecine]	6.63
COC(=O)C(C)(C)n1nc(C)c2c1OCC[C@@H](C)Nc1nc(ncc1C(F)(F)F)N2 [Ex-1.5, methyl (R)-2-(3,11-dimethyl-8-(trifluoromethyl)-10,11,12,13-tetrahydro-5,9-(azeno)pyrazolo[3,4-b][1]oxa[4,6,10]triazacyclotridecin-1(4H)-yl)-2-methylpropanoate]	8.73
Cc1nn(C2CC2)c2c1OC[C@@H]1CC[C@H]1Nc1nc(ncc1Cl)N2 [Ex-2.60, (10aR,12aR)-8-chloro-3-cyclopropyl-1-methyl-3,4,10,10a,11,12,12a,13-octahydro-5,9-(azeno)cyclobuta[k]pyrazolo[4,3-b][1]oxa[4,6,10]triazacyclotridecine]	9.41
Cc1nn(C2CCC2)c2c1OC[C@H]1CC(F)(F)C[C@@H]1Nc1nc(ncc1C(F)(F)F)N2 [Ex-4.1, 3-Cyclobutyl-12,12-difluoro-1-methyl-8-(trifluoromethyl)-3,4,10a,11,12,13,13a,14-octahydro-10H-5,9-(azeno)cyclopenta[k]pyrazolo[4,3-b][1]oxa[4,6,10]triazacyclotridecine]	6.25
Cc1nn(C2CC2(F)F)c2c1OCC1COCC1Nc1nc(ncc1C(F)(F)F)N2 [Ex-2.59, (10aS,13aS)-3-((R)-2,2-difluorocyclopropyl)-1-methyl-8-(trifluoromethyl)-3,4,10a,11,13a,14-hexahydro-10H,13H-5,9-(azeno)furo[3,4-k]pyrazolo[4,3-b][1]oxa[4,6,10]triazacyclotridecine (10aS,13aS)-3-((S)-2,2-difluorocyclopropyl)-1-methyl-8-(trifluoromethyl)-3,4,10a,11,13a, 14-hexahydro-10H,13H-5,9-(azeno)furo[3,4-k]pyrazolo[4,3-b|[1]oxa|4,6,10]triazacyclotridecine]	9.71
Cc1nn(C(C)C)c2c1OCCC(C)Nc1nc(ncc1C(F)(F)F)N2 (single isomer, unassigned) [Ex-2.9, (R)- or (S)-1-isopropyl-3,7-dimethyl-10-(trifluoromethyl)-1,5,6,7,8,14-hexahydro-9,13-(azeno)pyrazolo[4,3-b][1]oxa[4,6,10]triazacyclotridecine]	6.31
FC(F)(F)c1cnc2nc1NC1CCC1COc1c(C3CCOC3)nn(C3CCC3)c1N2 [Ex-2.63, (10aR,12aR)-3-cyclobutyl-1-((R)-(10aR,12aR)-3-cyclobutyl-1-((S)-(10aS,12aS)-3-cyclobutyl-1-((R)-(10aS,12aS)-3-cyclobutyl-1-((S)-tetrahydrofuran-3-yl)-8-(trifluoromethyl)-3,4,10,10a,11,12,12a,13-octahydro-5,9-(azeno)cyclobuta[k]pyrazolo[4,3-b][1]oxa[4,6,10]triazacyclotridecine]	>10.09
Cc1nn(C2CCC2)c2c1OC[C@H]1CN(C3COCC3F)C[C@@H]1Nc1nc(ncc1C(F)(F)F)N2 (mixture of isomers) [Ex-3.1, (10aS,13aR)- and (10aR,13aS)-3-cyclobutyl-12-(4-fluorotetrahydrofuran-3-yl)-1-methyl-8-(trifluoromethyl)-3,4,10a,11,12,13,13a,14-octahydro-10H-5,9-(azeno)pyrazolo[4,3-b]pyrrolo[3,4-k][1]oxa[4,6,10]triazacyclotridecine]	>10.09
